Results published in patent US20190100790A1, “DETERMINATION OF NOTCH PATHWAY ACTIVITY USING UNIQUE COMBINATION OF TARGET GENES” (KONINKLIJKE PHILIPS N.V., priority 2017, published 2019).

Tested on: Notch cellular signaling pathway
Experiment: Notch pathway activity predicted by Bayesian network model from target gene expression, MOLT4 cell line (data set GSE6495)
Assay type: cell-based, human
Conditions: MOLT4 cells, 48 hours, 5 μM
Text: Herein, an exemplary Bayesian network model as shown in FIG. 2 was used to model the transcriptional program of the Notch cellular signaling pathway in a simple manner. The model consists of three types of nodes: (a) a transcription factor (TF) element (with states “absent” and “present”) in a first layer 1; (b) target genes TG1, TG2, TGn (with states “down” and “up”) in a second layer 2, and; (c) measurement nodes linked to the expression levels of the target genes in a third layer 3. These can be microarray probesets PS1,1, PS1,2, PS1,3, PS2,1, PSn,1, PSn,m (with states “low” and “high”), as preferably used herein, but could also be other gene expression measurements such as RNAseq or RT-qPCR.
A suitable implementation of the mathematical model, herein, the exemplary Bayesian network model, is based on microarray data. The model describes (i) how the expression levels of the target genes depend on the activation of the TF element, and (ii) how probeset intensities, in turn, depend on the expression levels of the respective target genes. For the latter, probeset intensities may be taken from fRMA pre-processed Affymetrix HG-U133Plus2.0 microarrays, which are widely available from the Gene Expression Omnibus (GEO, www.ncbi.nlm.nih.gov/geo) and ArrayExpress (www.ebi.ac.uk/arrayexpress). […]

C[C@H](NC(=O)Cc1cc(F)cc(F)c1)C(=O)N[C@H](C(=O)OC(C)(C)C)c1ccccc1 [DAPT]
Notch cellular signaling pathway activity (odds that the TF element is present) (18 target genes shortlist model, vs untreated (FIG. 11)): decrease in Notch activity | Notch cellular signaling pathway activity (odds that the TF element is present) (26 target genes list model, vs untreated (FIG. 12)): decrease in Notch activity
